From patent US4503256A, “Phlorophenone derivatives, processes for preparing such compounds, uses and pharmaceutical compositions of phlorophenone compounds” (Noristan Limited, priority 1981, dated 1985)
In brackets after ≈: the same amount, converted by molar mass. Like-named read-outs stand apart in the source and are kept apart here.

Legend:
[1] = system: S. AUREUS; assay: Minimum Inhibitory Concentration (MIC), broth dilution in Brain Heart Infusion broth; assay type: cell-based, Staphylococcus aureus; settings: Staphylococcus aureus, read-out: MIC S. AUREUS
Experimental: (§1) For testing against the bacteria, concentrations of each of the compounds were prepared in Brain Heart Infusion broth (Oxoid CM225) in two-fold steps from 1000 μg/ml to 1 μg/ml. Solutions containing 1000 μg/ml were prepared by dissolving 20 mg of each compound in 5 ml of acetone and this was then made up to 20 ml with Brain Heart Infusion Broth. Serial two-fold dilutions were then prepared in the broth down to 1 μg/ml.
(§2) For testing against the bacteria each of the prepared test concentrations and acetone controls prepared in Brain Heart Infusion were dispensed in 2 ml amounts for each organism. A growth control of 2 ml of Brain Heart Infusion was included in each series.
(§3) To each of the prepared sets of concentrations of each compound were added 0.1 ml aliquots of the organism suspensions prepared as described previously. All the bottles were incubated at 37° C. for 48 hours in the case of the bacteria and from 5 to 15 days for the fungi (until growth controls had grown in each case).
(§4) After incubation the broths were examined for evidence of growth. The lowest concentration of the test compound which prevented growth was recorded as the Minimum Inhibitory Concentration (MIC).

[2] = system: St. PYOGENES; assay: as above; assay type: cell-based; settings: Streptococcus pyogenes, 37° C., 48 hours
Experimental: as §1, §2, §3, §4

[3] = system: C. ALBICANS; assay: Minimum Inhibitory Concentration (MIC), dilution in Sabouraud liquid medium; assay type: cell-based; settings: Candida albicans, 37° C., 5 to 15 days
Experimental: (§5) For testing against the fungi, concentrations of each of the compounds were prepared in Sabouraud liquid medium in two-fold steps from 100 μg/ml to 0.1 μg/ml. 500 μg/ml solutions were prepared by dissolving 10 mg in 5 ml of acetone, made up to 20 ml with Sabouraud liquid medium. 4 ml of the 500 μg/ml concentration was then made up to 20 ml with Sabouraud liquid medium to give a concentration of 100 μg/ml. Serial two-fold dilutions were prepared from this in the same medium down to 0.1 μg/ml.
(§6) For the fungi the same procedure was followed using the concentrations made up in Sabouraud liquid medium. The Nystatin concentrations were also dispensed in 2 ml amounts for each organism. Growth controls of Sabouraud liquid medium were included in each series.
as §3, §4

[4] = system: Mic. CANIS; assay: as above; assay type: cell-based; settings: Microsporum canis, 37° C., 5 to 15 days
Experimental: as §5, §6, §3, §4

[5] = system: Sp. SCHENKII; assay: as above; assay type: cell-based; settings: 37° C., 5 to 15 days
Experimental: as §5, §6, §3, §4

[6] = system: Tr. MENTAGROPHYTES; assay: as above; assay type: cell-based; settings: Trichophyton mentagrophytes, 37° C., 5 to 15 days
Experimental: as §5, §6, §3, §4

[7] = system: Tr. RUBRUM; assay: as above; assay type: cell-based; settings: Trichophyton rubrum, 37° C., 5 to 15 days
Experimental: as §5, §6, §3, §4

[8] = Acute oral toxicity in CD-1 mice; assay type: in vivo; settings: mouse, in vivo, male and female CD-1 mice, dose levels 1000, 464, 215 and 100 mg/kg, 7 days observation
Experimental: Male and female CD-1 mice were fasted for 18 hours prior to the experiment, but water was available ad libitum except during the observation period. The test compounds were prepared in 1% tragacanth and were administered orally to groups of two male and two female mice.
All compounds were tested at dose levels of 1000, 464, 215 and 100 mg/kg. Immediately after dosing, the mice were replaced in their "home" cage and were observed daily for 7 days post dose and any mortalities recorded.
The acute toxicities, as determined by the above procedure, of a number of representative compounds are given in the accompanying table.

[9] = 37° C., 48 hours, Brain Heart Infusion broth

| SMILES | MIC [1, 9] | MIC [2] | MIC [3] | MIC [4] | MIC [5] | MIC [6] | MIC [7] | LD50 at 168 h [8] | MIC ([1]; 48 h) |
| --- | --- | --- | --- | --- | --- | --- | --- | --- | --- |
| CCCC(=O)c1c(O)cc(O)c(C(=O)CCC)c1O [Compound 1, 2,4-Dibutyrylphloroglucinol] | 2 µg/mL (≈ 7.51 µM) | 1 µg/mL (≈ 3.76 µM) | 13 µg/mL (≈ 48.8 µM) | 3 µg/mL (≈ 11.3 µM) | 6 µg/mL (≈ 22.5 µM) | 6 µg/mL (≈ 22.5 µM) | 6 µg/mL (≈ 22.5 µM) | > 1000 mg/kg |  |
| CCC(=O)c1c(O)cc(O)c(CC=C(C)C)c1O [Compound 2, 2-Propionyl-4-(3-methylbuten-2-yl)phloroglucinol] | 125 µg/mL (≈ 499 µM) | 8 µg/mL (≈ 32 µM) | 50 µg/mL (≈ 200 µM) | 13 µg/mL (≈ 51.9 µM) | 25 µg/mL (≈ 99.9 µM) | 25 µg/mL (≈ 99.9 µM) | 13 µg/mL (≈ 51.9 µM) | > 1000 mg/kg |  |
| CCCCC(=O)c1c(O)cc(O)c(CC=C(C)C)c1O [Compound 4, 2-Valeryl-4-(3-methylbuten-2-yl)phloroglucinol] | 64 µg/mL (≈ 230 µM) | 16 µg/mL (≈ 57.5 µM) | 25 µg/mL (≈ 89.8 µM) | 13 µg/mL (≈ 46.7 µM) | 25 µg/mL (≈ 89.8 µM) | 13 µg/mL (≈ 46.7 µM) | 13 µg/mL (≈ 46.7 µM) | > 1000 mg/kg |  |
| CCCCCC(=O)c1c(O)cc(O)c(CC=C(C)C)c1O [Compound 5, 2-Caproyl-4-(3-methylbuten-2-yl)phloroglucinol] | 8 µg/mL (≈ 27.4 µM) | 4 µg/mL (≈ 13.7 µM) | 13 µg/mL (≈ 44.5 µM) | 1.6 µg/mL (≈ 5.47 µM) | 13 µg/mL (≈ 44.5 µM) | 6 µg/mL (≈ 20.5 µM) | 3 µg/mL (≈ 10.3 µM) | > 1000 mg/kg |  |
| CC(C)=CCc1c(O)cc(O)c(C(=O)Cc2ccccc2)c1O [Compound 6, 2Phenylacetyl-4-(3-methylbuten-2-yl)phloroglucinol] | 250 µg/mL (≈ 800 µM) | 8 µg/mL (≈ 25.6 µM) | > 100 µg/mL | 50 µg/mL (≈ 160 µM) | 50 µg/mL (≈ 160 µM) | 100 µg/mL (≈ 320 µM) | 25 µg/mL (≈ 80 µM) | > 1000 mg/kg |  |
| CC(C)=CCc1c(O)cc(O)c(C(=O)CCC(C)C)c1O [Compound 7, 2-Isocaproyl-4-(3-methylbuten-2-yl)phloroglucinol] | 16 µg/mL (≈ 54.7 µM) | 8 µg/mL (≈ 27.4 µM) | 25 µg/mL (≈ 85.5 µM) | 6 µg/mL (≈ 20.5 µM) | 25 µg/mL (≈ 85.5 µM) | 6 µg/mL (≈ 20.5 µM) | 6 µg/mL (≈ 20.5 µM) | 1000 mg/kg |  |
| CC(C)=CCc1c(O)cc(O)c(C(=O)C2CCCCC2)c1O [Compound 8, 2-Hexahydrobenzoyl-4-(3-methylbuten-2-yl)phloroglucinol] | 32 µg/mL (≈ 105 µM) | 8 µg/mL (≈ 26.3 µM) | 13 µg/mL (≈ 42.7 µM) | 6 µg/mL (≈ 19.7 µM) | 13 µg/mL (≈ 42.7 µM) | 6 µg/mL (≈ 19.7 µM) | 6 µg/mL (≈ 19.7 µM) | > 1000 mg/kg |  |
| CC(C)=CCc1c(O)cc(O)c(C(=O)C2CCCC2)c1O [Compound 9, 2-(2-Cyclopentyl-1-oxo)-4-(3-methylbuten-2-yl)phloroglucinol] |  | 8 µg/mL (≈ 27.6 µM) | 6.2 µg/mL (≈ 21.4 µM) | 1.6 µg/mL (≈ 5.51 µM) | 6.2 µg/mL (≈ 21.4 µM) | 6.2 µg/mL (≈ 21.4 µM) | 3.1 µg/mL (≈ 10.7 µM) | < 100 mg/kg | 32 µg/mL (≈ 110 µM) |
| CCCCCCCC(=O)c1c(O)cc(O)c(CC=C(C)C)c1O [Compound 11, 2-Octanoyl-4-(3-methylbuten-2-yl)phloroglucinol] | 64 µg/mL (≈ 200 µM) | 2 µg/mL (≈ 6.24 µM) | 100 µg/mL (≈ 312 µM) | 50 µg/mL (≈ 156 µM) | > 100 µg/mL | 100 µg/mL (≈ 312 µM) | 50 µg/mL (≈ 156 µM) | 597 mg/kg |  |
| CC(C)=CCc1c(O)cc(O)c(C(=O)Cc2ccc(Cl)cc2)c1O [Compound 14, 2-(4-Chlorophenyl)acetyl-4-(3-methylbuten-2-yl)phloroglucinol] | 16 µg/mL (≈ 46.1 µM) | 8 µg/mL (≈ 23.1 µM) | 100 µg/mL (≈ 288 µM) | 50 µg/mL (≈ 144 µM) | 100 µg/mL (≈ 288 µM) | 100 µg/mL (≈ 288 µM) | > 100 µg/mL | 1000 mg/kg |  |
| C=CCc1c(O)cc(O)c(C(=O)CC)c1O [Compound 15] | 250 µg/mL (≈ 1120 µM) | 125 µg/mL (≈ 562 µM) | 100 µg/mL (≈ 450 µM) | 50 µg/mL (≈ 225 µM) | 50 µg/mL (≈ 225 µM) | 25 µg/mL (≈ 112 µM) | 50 µg/mL (≈ 225 µM) | > 1000 mg/kg |  |
| C=CCc1c(O)cc(O)c(C(=O)CCCC)c1O [Compound 17] | 64 µg/mL (≈ 256 µM) | 16 µg/mL (≈ 63.9 µM) | 25 µg/mL (≈ 99.9 µM) | 6 µg/mL (≈ 24 µM) | 25 µg/mL (≈ 99.9 µM) | 13 µg/mL (≈ 51.9 µM) | 13 µg/mL (≈ 51.9 µM) | > 1000 mg/kg |  |
